Data taken from patent publication US20250179033A1 (priority 2021, published 2025).
Read-outs that look alike come from different tables or passages of the source.

How the values were obtained:
[1] = Human liver microsome stability; format: in vitro ADME
Method: (§1) Mouse/Human liver microsome stability: A liver microsome solution (197.5 μL, 1.27 mg/ml protein concentration) (Sekisui Xenotech, Kansas City, KS) was aliquoted into 1.1 ml tubes, to which 2.5 μL of positive control and compound stock solutions (100 μM in DMSO) were added. The tubes were vortexed gently, pre-incubated for 5 min at 37° C., then 50 μL of 5 mM NADPH or LM buffer (no NADPH buffer) was added into the tubes. For analysis, an aliquot of 15 μL was removed from each tube at 0, 5, 15, 30 and 60 min (without-NADPH reaction: 0, 30 and 60 min) and quenched with 300 μL of 25 ng/ml propranolol in acetonitrile. Samples were vigorously vortexed for 1 min and then centrifuged at 4,000 rpm for 15 min at 4° C. 100 μL of supernatant from each sample was transferred to 0.65 ml tubes for LCMS analysis. The amount of parent compound was determined on the basis of the peak area ratio (compound area to IS area) for each time point. Clearance rates were calculated by the equation: […]

in vitro [2] = format: in vitro ADME, human
Method: (§2) Protein Binding in Plasma: The donor side of dialysis inserts were filled with 200 μL plasma (human and mouse; source BioDuro, San Diego, California, United States of America) containing 5 μM drug and 0.5% of DMSO and the receiver side of the dialysis inserts was filled with 350 μL of PBS buffer (100 mM, pH 7.4). The prepared dialysis apparatus was placed in a shaker (37° C., 100 rpm) for 5 hours. Two tubes with plasma containing 5 μM experimental compound were also prepared for stability test: one tube was placed in the […] for 5 hours and the other tube was placed in shaker ([…], 100 rpm) for 5 hours. Samples were collected from the donor and receiver sides of each dialysis insert. The same volume of blank plasma was added to buffer samples and blank buffer to plasma samples to make sure all sample mixtures contain 50% plasma and 50% buffer. 50 μL of each sample was mixed with 300 μL of acetonitrile containing 25 ng/ml internal standard (propranolol). All samples were vortexed for 1 minute and then centrifuged at 4000 rpm, 4° C. for 15 min. 100 μL of the supernatant was transferred to 0.65 ml tube for LCMS analysis. The amount of compound was determined on the basis of the peak area ratio (compound area to internal standard area) for the two sides, and protein binding is determined using the following equations: % Bound=100×([Area Ratio of Donor]5h*5−[Area Ratio of Receiver]5h)/([Area Ratio of Donor]5h*5). The percentage remaining at 37° C. after 5 hours was calculated on the basis of the amount measured at 0° C. after 5 hours.

[3] = Mouse liver microsome stability; format: in vitro ADME
Method: as §1

HIV-1 IIIB (wild-type) = assay: HIV inhibition assay in TZM-bl cells, wild-type; format: cell-based; details: Human immunodeficiency virus 1, IIIB; for IC50: read-out: IC50 (TZM, WT)
Procedure, shortened: (§3)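 TZM-bl cells with 15 μg/mL DEAE-dextran were infected with H9-grown HIV-1 IIIB, wild-type or A17 (Y181C/K103N), in the presence of compound (0.005% or 0.05% DMSO) for 48 h at 37 °C. Luciferase RLU was read after lysis. Toxicity was measured in parallel by CellTiter-Blue fluorescence.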

in vitro [4] = format: in vitro ADME, mouse
Method: as §2

[5] = test system: HIV-1 IIIB A17 variant (Y181C/K103N); assay: HIV inhibition assay in TZM-bl cells, A17 variant; format: cell-based
Procedure, shortened: as §3

CYP2D6 = CYP2D6 (Homo sapiens, UniProt P10635); assay: Human CYP inhibition in human liver microsomes; format: in vitro ADME
Method: Study samples (containing either control inhibitor or test compound) were added into the tubes, vortexed gently and pre-incubated for 5 min at 37° C. 20 μL of NADPH solution was aliquoted into all tubes, then vortexed to start the reaction and to assure adequate mixture of the NADPH. After mixing, the tubes were incubated for 20 min at 37° C. in a shaking water bath and then quenched in […] formic acid/acetonitrile solution. After quenching, the samples were vortexed vigorously for 1 min and centrifuged at 4,000 rpm for 15 min (4° C.). 100 μL of supernatant was transferred to 0.65 ml tubes for LCMS analysis by the bioanalytical method described earlier. The CYP450 substrates and control inhibitors for each enzyme was as follows: CYP1A2 (phenacetin, naphthoflavone), CYP2C9 (diclofenac, sulfaphenazole), CYP2C19 (omeprazole, tranylcypromine), CYP2D6 (dextromethorphan, quinidine), CYP3A4 (midazolam, ketoconazole).

[6] = Table 3, TZM-bl, ± SEM, minimum 6 replicates
[7] = Human immunodeficiency virus 1, IIIB, TZM-bl, read-out: IC50 (TZM, A17), Table 3, TZM-bl, ± SEM, minimum 6 replicates
[8] = Human immunodeficiency virus 1, IIIB, TZM-bl, read-out: IC50 (TZM, A17), Table 4, TZM-bl

Sequence of CYP2D6 (P10635 whole entry): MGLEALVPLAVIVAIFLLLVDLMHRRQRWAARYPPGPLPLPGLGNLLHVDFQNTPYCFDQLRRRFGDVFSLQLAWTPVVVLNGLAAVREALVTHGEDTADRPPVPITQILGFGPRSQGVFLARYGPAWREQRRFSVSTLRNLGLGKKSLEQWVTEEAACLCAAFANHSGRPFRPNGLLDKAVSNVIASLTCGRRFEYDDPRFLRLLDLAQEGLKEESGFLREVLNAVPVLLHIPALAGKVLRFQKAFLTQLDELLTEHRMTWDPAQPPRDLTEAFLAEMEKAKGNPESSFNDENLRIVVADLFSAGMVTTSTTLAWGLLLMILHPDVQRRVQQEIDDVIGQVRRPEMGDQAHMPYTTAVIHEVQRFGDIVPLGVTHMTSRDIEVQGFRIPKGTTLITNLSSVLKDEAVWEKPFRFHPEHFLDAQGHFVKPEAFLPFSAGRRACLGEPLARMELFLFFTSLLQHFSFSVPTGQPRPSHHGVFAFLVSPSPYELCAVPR

Nc1nc(Nc2ccc(Cl)cc2)nn1S(=O)(=O)c1ccc2ccccc2c1 [Compound 1, N3-(4-chlorophenyl)-1-(2-naphthylsulfonyl)-1,2,4-triazole-3,5-diamine]
Human liver microsomes, stability in words [1]: protein, stable
Human liver microsomes CLint ([1]; human, liver microsomes, 1 μM): 2.0 μL/min/mg protein
Human plasma protein binding (in vitro [2]; 5 μM, dialysis 5 hours): >99.9%
Mouse liver microsomes, stability in words [3]: protein, stable
Mouse liver microsomes CLint ([3]; mouse, liver microsomes, 1 μM): 10.4 μL/min/mg protein
IC50 (HIV-1 IIIB (wild-type); [6]): 9.33 ± 2.27 nM
IC50 (HIV-1 IIIB (wild-type); Table 4, TZM-bl): 9.33 nM
Mouse plasma protein binding (in vitro [4]; 5 μM, dialysis 5 hours): >99.9%
IC50 [5, 7]: > 1000 nM
IC50 [5, 8]: > 1000 nM
IC50 (CYP2D6): > 50000 nM

N#C/C=C/c1ccc2c(S(=O)(=O)n3nc(Nc4ccc(C#N)c(Cl)c4)nc3N)cccc2c1 [Compound 20, 4-[[5-amino-1-[[6-[2-cyanovinyl]-1-naphthyl]sulfonyl]-1,2,4-triazol-3-yl]amino]-2-chloro-benzonitrile]
Human liver microsomes, stability in words [1]: stable
half-life at 1 μM ([1]; human, liver microsomes): 0.897 h
microsomal CLint at 1 μM ([1]; human, liver microsomes): 25.8 µL/min/mg
half-life at 5 μM (in vitro [2]; human, plasma): > 6.21 h
fraction unbound (in vitro [2]; human, plasma, pH 7.4, 5 μM, dialysis 5 hours, read-out: Human plasma protein binding): < 0.001
Mouse liver microsomes, stability in words [3]: stable
half-life at 1 μM ([3]; mouse, liver microsomes): 2.07 h
microsomal CLint at 1 μM ([3]; mouse, liver microsomes): 11.1 µL/min/mg
IC50 (HIV-1 IIIB (wild-type); [6]): 0.263 ± 0.05 nM
IC50 (HIV-1 IIIB (wild-type); Table 4, TZM-bl): 0.309 nM
EC50 (HIV-1 IIIB (wild-type); text b494, FIG. 2F, read-out: antiviral activity against wildtype, EC50): 0.22 nM
half-life at 5 μM (in vitro [4]; mouse, plasma): > 6.21 h
fraction unbound (in vitro [4]; mouse, plasma, pH 7.4, 5 μM, dialysis 5 hours, read-out: Mouse plasma protein binding): < 0.001
activity against the A17 variant, in words [5]: retained potent activity
IC50 [5, 7]: 0.689 ± 0.143 nM
IC50 [5, 8]: 45.4 nM
EC50 ([5]; Human immunodeficiency virus 1, IIIB, TZM-bl, read-out: activity against the A17 double mutant (Y181C/K103N), EC50): 1.86 nM
IC50 (CYP2D6; human liver microsomes, substrate dextromethorphan, read-out: CYP inhibition IC50, 2D6): > 50000 nM
